The values below come from patent publication US11319303B2 (WIGEN BIOMEDICINE TECHNOLOGY (SHANGHAI) CO., LTD., priority 2017, dated 2022).

Where a name gives a salt, the structure may show the parent alone. A value given as a limit tells only on which side of the number the result lay.

For one test, the target named is LC3B (Homo sapiens, UniProt Q9GZQ8). Description: Fluorescence Polarization (FP) Assay: displacement of FITC-labeled peptide from GST-LC3B. The format is binding.
Conditions: not given
How it is done:
The compounds of the present invention for regulating the autophagy-related protein LC3B were tested by Fluorescence Polarization (FP) Assay.
Fluorescence Polarization (FP) Assay Test
`O=C1CC(c2ccccc2)CC(=O)C1=CNC1CCSC1=O` (stereo not drawn) [Compound 137, 2-(((2-oxotetrahydro-thiophen-3-yl)amino)methylene)-5-phenylcyclohexane-1,3-dione] gave an IC50 of 3 to 15 µM.

The same test, now with this note: Fluorescence Polarization assay; GST-LC3B 180 nM, FITC-labeled peptide 18 nM, 25° C.; read-out: IC50.
As to `O=C1CC(c2ccccc2)CC(=O)C1=CNC1CCNCC1` (stereo not drawn) [Compound 140, 5-phenyl-2-((piperidin-4-ylamino)methylene) cyclohexane-1,3-dione hydrochloride], the IC50 fell in the range of 15 to 100 µM.

With `O=C1CC(c2ccccc2)CC(=O)C1=CNC1CCCNC1` (stereo not drawn) [Compound 141, 5-phenyl-2-((piperidin-3-ylamino)methylene) cyclohexane-1,3-dione hydrochloride], the IC50 was 3 to 15 µM.

`CN1CCC(NC=C2C(=O)CC(c3ccccc3)CC2=O)CC1` (stereo not drawn) [Compound 142, 2-(((1-methylpiperidin-4-yl)amino)methylene)-5-phenylcyclohexane-1,3-dione]: the IC50 lay in the range of 15 to 100 µM.

For `C=CCNC=C1C(=O)CC(c2ccccc2)CC1=O` (stereo not drawn) [Compound 143, 2-((allylamino)methylene)-5-phenylcyclo-hexane-1,3-dione], the IC50 was 15 to 100 µM.

In the case of `COc1ccc(CNC=C2C(=O)CC(c3ccccc3)CC2=O)cc1` (stereo not drawn) [Compound 145, 2-(((4-methoxybenzyl)amino)methylene)-5-phenylcyclo-hexane-1,3-dione], the IC50 lay within 100 to 1000 µM.

Take `COc1ccc(NC=C2C(=O)CC(c3ccccc3)CC2=O)cn1` (stereo not drawn) [Compound 147, 2-(((6-methoxypyridin-3-yl)amino)methylene)-5-phenylcyclo-hexane-1,3-dione]: the IC50 fell in the range of 15 to 100 µM.

`O=C1CC(c2ccccc2)CC(=O)C1=CNc1nc(C(=O)O)cs1` (stereo not drawn) [Compound 148, 2-(((2,6-dioxo-4-phenylcyclo-hexylidene)methyl)amino) thiazole-4-carboxylic acid]: the IC50 was less than 3 µM.

For `O=C1CC(c2ccccc2)CC(=O)C1=CNc1ncc([N+](=O)[O-])s1` (stereo not drawn) [Compound 150, 2-(((5-nitrothiazol-2-yl)amino)methylene)-5-phenylcyclohexane-1,3-dione], the concentration for half-maximal inhibition (IC50) is less than 3 µM.

Turning to `O=C1Oc2ccccc2C(=O)C1=CNCCN1CCN(CCO)CC1` [Compound 155, 3-(((2-(4-(2-hydroxyethyl)piperazin-1-yl)ethyl)amino)methylene) chromanone-2,4-dione], the IC50 is 15 to 100 µM.

In the case of `O=C1Oc2ccc(-c3ccccc3)cc2C(=O)C1=CNCCN1CCN(CCO)CC1` [Compound 156, 3-(((2-(4-(2-hydroxyethyl)piperazin-1-yl)ethyl)amino)methylene)-6-phenylchromane-2,4-dione], the 50% inhibitory concentration (IC50) was 3 to 15 µM.

For `CC(O)C(NC=C1C(=O)CC(c2ccccc2)CC1=O)C(=O)O` (stereo not drawn) [Compound 158, 2-(((2,6-dioxo-4-phenylcyclo-hexylidene)methyl)amino)-3-hydroxybutanoic acid], the IC50 fell in the range of 100 to 1000 µM.

As for `CC(NC=C1C(=O)CC(c2ccccc2)CC1=O)c1ccccn1` (stereo not drawn) [Compound 160, 5-phenyl-2-(((1-(pyridin-2-yl)ethyl)amino)methylene) cyclohexane-1,3-dione], the IC50 was 15 to 100 µM.

Take `O=C1CC(c2ccccc2)CC(=O)C1=CNCC1CCNCC1` (stereo not drawn) [Compound 161, 5-phenyl-2-(((piperidin-4-ylmethyl)amino)methylene) cyclohexane-1,3-dione hydrochloride]: the IC50 was in the range of 100 to 1000 µM.

Consider `CCOC(=O)[C@H](C)NC=C1C(=O)CC(c2ccccc2)CC1=O` (stereo partly drawn) [Compound 162, ethyl ((2,6-dioxo-4-phenylcyclo-hexylidene)methyl)-L-alaninate], for which the half-inhibitory concentration (IC50) was 15 to 100 µM.

Consider `O=C1CC(c2ccccc2)CC(=O)C1=CNC[C@@H](O)[C@H](O)[C@@H](O)[C@@H](O)CO` (stereo partly drawn) [Compound 163, 2-((((2R,3S,4S,5S)-2,3,4,5,6-pentahydroxyhexyl)amino)methylene)-5-phenylcyclohexane-1,3-dione], for which the IC50 lay in the range of 100 to 1000 µM.

Regarding `CNCCNC=C1C(=O)CC(c2ccccc2)CC1=O` (stereo not drawn) [Compound 164, 2-(((2-(methylamino)ethyl)amino)methylene)-5-phenylcyclohexane-1,3-dione hydrochloride], the half-maximal inhibitory concentration (IC50) was 3 to 15 µM.

As for `CCOC(=O)C(CS)NC=C1C(=O)CC(c2ccccc2)CC1=O` (stereo not drawn) [Compound 169, ethyl ((2,6-dioxo-4-phenylcyclo-hexylidene)methyl) cysteinate], the IC50 was in the range of 3 to 15 µM.

As for `CN(C)CCCCNC=C1C(=O)CC(c2ccccc2)CC1=O` (stereo not drawn) [Compound 170, 2-(((4-(dimethylamino)butyl)amino)methylene)-5-phenylcyclohexane-1,3-dione], the IC50 lay within 3 to 15 µM.

Regarding `CCN1CCC[C@H]1CNC=C1C(=O)CC(c2ccccc2)CC1=O` (stereo partly drawn) [Compound 171, 2-(((((S)-1-ethylpyrrolidin-2-yl)methyl)amino)methylene)-5-phenylcyclohexane-1,3-dione], the 50% inhibitory concentration (IC50) is 3 to 15 µM.

In the case of `NC1CC(NC=C2C(=O)CC(c3ccccc3)CC2=O)C1` (stereo not drawn) [Compound 173, 2-(((3-aminocyclobutyl)amino)methylene)-5-phenylcyclohexane-1,3-dione hydrochloride], the IC50 was in the range of 15 to 100 µM.

Turning to `NCCNC=C1C(=O)CC(c2ccccc2)CC1=O` (stereo not drawn) [Compound 175, 2-(((2-aminoethyl)amino)methylene)-5-phenylcyclo-hexane-1,3-dione hydrochloride], the IC50 lay within 3 to 15 µM.

Take `CC(=O)NCCNC=C1C(=O)CC(c2ccccc2)CC1=O` (stereo not drawn) [Compound 176, N-(2-(((2,6-dioxo-4-phenylcyclo-hexylidene)methyl)amino)ethyl) acetamide]: the IC50 is 100 to 1000 µM.

With `NCCOC(=O)[C@H](Cc1ccccc1)NC=C1C(=O)CC(c2ccccc2)CC1=O` (stereo partly drawn) [Compound 178, 2-aminoethyl ((2,6-dioxo-4-phenylcyclo-hexylidene)methyl)-L-phenylalaninate hydrochloride], the IC50 is 15 to 100 µM.

As for `CONC=C1C(=O)CC(c2ccccc2)CC1=O` (stereo not drawn) [Compound 180, 2-((methoxyamino)methylene)-5-phenylcyclo-hexane-1,3-dione], the 50% inhibitory concentration (IC50) was 100 to 1000 µM.

On to `CC1(C)CC(=O)C(=CNCCN2CCN(CCO)CC2)C(=O)C1` [Compound 182, 2-(((2-(4-(2-hydroxyethyl)piperazin-1-yl)ethyl)amino)methylene)-5,5-dimethyl-cyclohexane-1,3-dione], for which the half-inhibitory concentration (IC50) was 100 to 1000 µM.

For `O=C1/C(=C/NCCN2CCN(CCO)CC2)Oc2ccccc21` [Compound 183, 2-(((2-(4-(2-hydroxyethyl)piperazin-1-yl)ethyl)amino)methylene) benzofuran-3(2H)-one], the IC50 lay within 100 to 1000 µM.

On to `Cc1cccc2[nH]cc(C3CC(=O)C(=CNCCN4CCN(CCO)CC4)C(=O)C3)c12` (stereo not drawn) [Compound 184, 2-(((2-(4-(2-hydroxyethyl)piperazin-1-yl)ethyl)amino)methylene)-5-(4-methyl-1H-indol-3-yl)cyclohexane-1,3-dione], for which the half-inhibitory concentration (IC50) was in the range of 100 to 1000 µM.

In the case of `O=C1CC(c2cccc3[nH]cc(C4CC4)c23)CC(=O)C1=CNCCN1CCN(CCO)CC1` (stereo not drawn) [Compound 185, 5-(3-cyclopropyl-1H-indol-4-yl)-2-(((2-(4-(2-hydroxyethyl)piperazin-1-yl)ethyl)amino)methylene) cyclohexane-1,3-dione], the IC50 was less than 3 µM.

Turning to `COc1ccc2[nH]cc(C3CC(=O)C(=CNCCN4CCN(CCO)CC4)C(=O)C3)c2c1` (stereo not drawn) [Compound 186, 2-(((2-(4-(2-hydroxyethyl)piperazin-1-yl)ethyl)amino)methylene)-5-(5-methoxy-1H-indol-3-yl)cyclohexane-1,3-dione], the IC50 lay within 3 to 15 µM.

Take `O=C1CC(c2ccccc2-c2ccccc2)CC(=O)C1=CNCCN1CCN(CCO)CC1` (stereo not drawn) [Compound 187, 5-([1,1′-biphenyl]-2-yl)-2-(((2-(4-(2-hydroxyethyl)piperazin-1-yl)ethyl)amino)methylene) cyclohexane-1,3-dione]: the half-inhibitory concentration (IC50) was less than 3 µM.

Take `O=C1CC(c2ccccc2-c2ccncc2)CC(=O)C1=CNCCN1CCN(CCO)CC1` (stereo not drawn) [Compound 188, 2-(((2-(4-(2-hydroxyethyl)piperazin-1-yl)ethyl)amino)methylene)-5-(2-(pyridin-4-yl)phenyl) cyclohexane-1,3-dione]: the IC50 lay in the range of 3 to 15 µM.

Regarding `O=C1CC(c2ccccc2C2CC2)CC(=O)C1=CNCCN1CCN(CCO)CC1` (stereo not drawn) [Compound 189, 5-(2-cyclopropylphenyl)-2-(((2-(4-(2-hydroxyethyl)piperazin-1-yl)ethyl)amino)methylene) cyclohexane-1,3-dione], the concentration for half-maximal inhibition (IC50) is less than 3 µM.

Regarding `O=C1CC(c2ccccc2)C(C(=O)N2CCOCC2)C(=O)C1=CNCCN1CCN(CCO)CC1` (stereo not drawn) [Compound 190, 2-(((2-(4-(2-hydroxyethyl)piperazin-1-yl)ethyl)amino)methylene)-4-(morpholine-4-carbonyl)-5-phenylcyclo-hexane-1,3-dione], the IC50 lay in the range of 15 to 100 µM.

`CCOC(=O)C1C(=O)/C(=C\NCCN2CCN(CCO)CC2)C(=O)CC1c1ccccc1Br` (stereo not drawn) [Compound 191, ethyl-6-(2-bromophenyl)-3-(((2-(4-(2-hydroxyethyl)piperazin-1-yl)ethyl)amino)methylene)-2,4-dioxocyclohexane-1-carboxylate]: the IC50 is less than 3 µM.

With `O=C1Nc2ccc(Cl)cc2C(=O)/C1=C/NCCN1CCN(CCO)CC1` [Compound 192, 6-chloro-3-(((2-(4-(2-hydroxyethyl)piperazin-1-yl)ethyl)amino)methylene) quinoline-2,4 (1H,3H)-dione], the IC50 fell in the range of 3 to 15 µM.

With `CN1C(=O)/C(=C\NCCN2CCN(CCO)CC2)C(=O)c2ccccc21` [Compound 193, 3-(((2-(4-(2-hydroxyethyl)piperazin-1-yl)ethyl)amino)methylene)-1-methylquinoline-2,4(1H,3H)-dione], the IC50 was in the range of 15 to 100 µM.

Regarding `COc1cccc2c1NC(=O)/C(=C\NCCN1CCN(CCO)CC1)C2=O` [Compound 194, 3-(((2-(4-(2-hydroxyethyl)piperazin-1-yl)ethyl)amino)methylene)-8-methoxyquinoline-2,4(1H,3H)-dione], the concentration for half-maximal inhibition (IC50) fell in the range of 15 to 100 µM.

On to `O=C1Nc2c(F)cccc2C(=O)/C1=C/NCCN1CCN(CCO)CC1` [Compound 195, 8-fluoro-3-(((2-(4-(2-hydroxyethyl)piperazin-1-yl)ethyl)amino)methylene) quinoline-2,4 (1H,3H)-dione], for which the 50% inhibitory concentration (IC50) was 3 to 15 µM.

For orientation: IC50 means the point on the concentration scale where inhibition reaches its midpoint.
